Data published in patent EP0251446B1, “Non-human Carbonyl hydrolase mutants, DNA sequences and vectors encoding same and hosts transformed with said vectors” (GENENCOR INTERNATIONAL, INC., priority 1986, dated 1988).
Numbering of substitutions follows the chain as printed. *1 amine or outer side, *2 acyl side, *3 side chain or, on linkers, in order; H or OH if unused. Where a SMILES comes first, the peptide text is derived from it. The star is where a group is joined. pNA = O=[N+]([O-])c1ccc(N*)cc1; Suc = O=C(CCC(=O)[*:2])[*:1]

Assays:
Format in all cases: biochemical
[1] = target: T1, B. amyloliquefaciens subtilisin variant L217 (Tyr217 to Leu) (Bacillus amyloliquefaciens, UniProt P00782, Y324L); assay: Kinetics of p-nitroanilide substrate hydrolysis, L217; conditions: substrate sAAPFpNa
T1 construct: made in house
T1 sequence (P00782 108-382 Y324L): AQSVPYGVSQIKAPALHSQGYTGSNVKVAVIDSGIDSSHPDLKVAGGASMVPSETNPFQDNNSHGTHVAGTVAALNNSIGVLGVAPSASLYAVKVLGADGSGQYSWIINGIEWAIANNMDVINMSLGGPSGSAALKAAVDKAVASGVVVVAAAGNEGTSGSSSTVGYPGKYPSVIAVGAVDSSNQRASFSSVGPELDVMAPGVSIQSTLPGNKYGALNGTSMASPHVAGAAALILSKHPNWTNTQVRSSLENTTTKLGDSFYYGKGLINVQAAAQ
Description: (§1) Wild-type subtilisin was purified from B. subtilis culture supernatants expressing the B. amyloliquefaciens subtilisin gene (Wells, J.A., et al. (1983) Nucleic Acids Res. 11, 7911-7925) as previously described (Estell, D.A., et al. (1985) J. Biol. Chem. 260, 6518-6521). Details of the synthesis of tetrapeptide substrates having the form succinyl-L-AlaL-AlaL-ProL-[X]-p-nitroanilide (where X is the P1 amino acid) are described by DelMar, E.G., et al. (1979) Anal. Biochem. 99, 316-320. Kinetic parameters, Km(M) and kcat-(s-^1) were measured using a modified progress curve analysis (Estell, D.A., et al. (1985) J. Biol. Chem. 260, 6518-6521). Briefly, plots of rate versus product concentration were fit to the differential form of the rate equation using a non-linear regression algorithm. Errors in kcat and Km for all values reported are less than five percent. The various substrates in Table VIII are ranged in order of decreasing hydrophobicity. Nozaki, Y. (1971), J. Biol. Chem. 246, 2211-2217; Tanford C. (1978) Science 200, 1012).
Tyr217 has been substituted by all other 19 amino acids. Cassette mutagenesis as described in EPO publication No. 0130756 was used according to the protocol of Figure 22. The EcoRV restriction site was used for restriction-purification of pA217.
Since this position is involved in substrate binding, mutations here effect kinetic parameters of the enzyme. […]

[2] = target: T2, B. amyloliquefaciens subtilisin, wild type (WT, Gly166) (Bacillus amyloliquefaciens, UniProt P00782); assay: Kinetics of hydrolysis of succinyl-Ala-Ala-Pro-X-p-nitroanilide substrates (progress curve analysis)
T2 construct: at various amino acid residues within the mature form of the subtilisin molecule; made in house; host or cells: Bacillus subtilis (secreted, culture supernatant)
T2 sequence (P00782 108-382): T1 sequence (P00782 108-382 Y324L) with L217Y
Description: A change in substrate specificity is defined as a difference between the kcat/Km ratio of the precursor carbonyl hydrolase and that of the hydrolase mutant. The kcat/Km ratio is a measure of catalytic efficienty. Carbonyl hydrolase mutants with increased or diminished kcat/Km ratios are described in the examples. Generally, the objective will be to secure a mutant having a greater (numerically large) kcat/Km ratio for a given substrate, thereby enabling the use of the enzyme to more efficiently act on a target substrate. A substantial change in kcat/Km ratio is preferably at least 2-fold increase or decrease. However, smaller increases or decreases in the ratio (e.g., at least 1.5-fold) are also considered substantial. An increase in kcat/Km ratio for one substrate may be accompanied by a reduction in kcat/Km ratio for another substrate. […] Km and kcat are measured in accord with known procedures, as described in EPO Publication No. 0130756 or as described herein.
as §1

[3] = target: T3, B. amyloliquefaciens subtilisin deletion mutant S153/S156/A158/G159/S160/Δ161-164/I165/S166/A169/R170 (Bacillus amyloliquefaciens, UniProt P00782, A260S/DEL268-271/E263S/G267S/G273S/G276A/K277R/S266G/T265A/V272I); assay: Kinetics of p-nitroanilide substrate hydrolysis, deletion mutant; conditions: Table V; substrate not given; method b166 gives kcat in s-1
T3 construct: made in house
T3 sequence (P00782 with tags, fused parts or gaps A260S/E263S/DEL265-265/S266A/S269I/DEL271-273/G276A/K277R): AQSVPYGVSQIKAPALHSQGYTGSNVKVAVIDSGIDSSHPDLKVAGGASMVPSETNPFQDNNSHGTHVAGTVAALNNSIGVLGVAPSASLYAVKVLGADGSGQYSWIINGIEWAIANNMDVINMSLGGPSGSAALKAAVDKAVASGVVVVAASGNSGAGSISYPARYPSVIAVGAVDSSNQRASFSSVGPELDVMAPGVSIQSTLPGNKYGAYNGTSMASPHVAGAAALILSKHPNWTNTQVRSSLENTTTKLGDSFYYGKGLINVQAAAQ
Description: The effect of deletion of residues 161 through 164 has been shown by comparing the activity of the wild type (WT) enzyme with a mutant enzyme containing this deletion as well as multiple substitutions (i.e., S153/S156/A158/G159/S160/0161-164/1165/S166/A169/R170). This produced the following results:
as §1

In the case of `C[C@H](NC(=O)CCC(=O)O)C(=O)N[C@@H](C)C(=O)N1CCC[C@H]1C(=O)N[C@@H](Cc1ccccc1)C(=O)Nc1ccc([N+](=O)[O-])cc1` [sAAPFpNa, succinyl-L-AlaL-AlaL-ProL-Phep-nitroanilide, reference compound] (Suc-AAPF-pNA), the kcat [1] was 277 5', the kcat ([2]; Table V, substrate not given, method b166 gives kcat in s-1) was 50 and the kcat ([2]; Table XIX, WT) was 50 s-^1. It also gave a kcat [3] of 8.
